This note sets out measurements from patent publication US12331046B2, “CTPS1 inhibitors and uses thereof” (Nimbus Clotho, Inc., priority 2020, dated 2025).

For the assay, the target named is human CTPS1 (Homo sapiens (Human), UniProt P17812). Put plainly: hCTPS1 biochemical assay (ADP-Glo). Conditions: hCTPS1 25 nM, ATP 120 uM, UTP 160 uM, GTP 60 uM, L-Glutamine 100 uM, 25 degrees C.
Chain of human CTPS1 (P17812 whole entry): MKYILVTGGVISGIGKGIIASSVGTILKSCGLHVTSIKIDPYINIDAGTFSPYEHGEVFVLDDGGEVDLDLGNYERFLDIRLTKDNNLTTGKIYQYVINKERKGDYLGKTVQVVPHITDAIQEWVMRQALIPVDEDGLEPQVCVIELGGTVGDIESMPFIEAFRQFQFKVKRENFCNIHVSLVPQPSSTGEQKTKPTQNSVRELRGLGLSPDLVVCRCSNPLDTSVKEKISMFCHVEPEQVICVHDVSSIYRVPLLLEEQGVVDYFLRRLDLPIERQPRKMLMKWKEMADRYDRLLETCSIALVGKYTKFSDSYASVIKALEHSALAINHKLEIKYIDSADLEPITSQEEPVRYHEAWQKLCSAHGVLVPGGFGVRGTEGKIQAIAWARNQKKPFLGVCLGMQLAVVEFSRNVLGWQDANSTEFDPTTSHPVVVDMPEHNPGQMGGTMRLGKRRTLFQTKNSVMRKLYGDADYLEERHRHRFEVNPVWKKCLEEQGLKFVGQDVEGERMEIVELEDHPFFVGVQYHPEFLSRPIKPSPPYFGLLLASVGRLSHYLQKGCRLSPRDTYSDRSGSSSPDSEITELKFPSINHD
Turning to `CCOc1cncc(-c2cnc(C(=O)N3CCC[C@H]3c3cccc(NS(=O)(=O)C4CC4)n3)s2)n1` [I-231, N-[6-[(2S)-1-[5-(6-ethoxypyrazin-2-yl)-1,3-thiazole-2-carbonyl]pyrrolidin-2-yl]pyridin-2-yl]cyclopropanesulfonamide], the IC50 (commonly the midpoint of a concentration-inhibition curve) fell in the range of 100 to 1000 nM.

Regarding `CCOc1cncc(-c2cnc(C(=O)N3CCCC3c3cncc(NS(=O)(=O)C4CC4)c3)s2)n1` (centres unmarked) [I-232, N-(5-(1-(5-(6-ethoxypyrazin-2-yl)thiazole-2-carbonyl)pyrrolidin-2-yl)pyridin-3-yl)cyclopropanesulfonamide], the IC50 was below 100 nM.

The compound `O=C(NCc1cc(NS(=O)(=O)C2CC2)ccn1)c1ncc(-c2cnn3ccccc23)s1` [I-237, N-((4-(cyclopropanesulfonamido)pyridin-2-yl)methyl)-5-(pyrazolo[1,5-a]pyridin-3-yl)thiazole-2-carboxamide] showed an IC50 of 100 to 1000 nM.

Turning to `CCOc1cncc(-n2cnc(C(=O)NCc3cc(NS(=O)(=O)C4CC4)ccn3)c2)n1` [I-238], the IC50 was 100 to 1000 nM.

`CCOc1cncc(-c2nnc(C(=O)N[C@@H](CC)c3cc(NS(=O)(=O)C4CC4)ccn3)s2)n1` [I-239]: the IC50 is below 100 nM.

For `CCOc1cncc(-c2cnc(C(=O)NC(CN(C)C)c3cc(NS(=O)(=O)C4CC4)ccn3)s2)n1` (centres unmarked) [I-241], the half-maximal inhibitory concentration (IC50) is below 100 nM.

For the compound `CCOc1cncc(-c2cnc(C(=O)NCc3cc(NS(=O)(=O)C4CC4)ccn3)s2)c1` [I-242, N-((4-(cyclopropanesulfonamido)pyridin-2-yl)methyl)-5-(5-ethoxypyridin-3-yl)thiazole-2-carboxamide], the IC50 is below 100 nM.

For `O=C(NCc1cc(NS(=O)(=O)C2CC2)ccn1)c1ncc(-c2cncc(OCC(F)(F)F)n2)s1` [I-243], the IC50 is below 100 nM.

As for `CCOc1cncc(-n2cc(C(=O)NCc3cc(NS(=O)(=O)C4CC4)ccn3)cn2)n1` [I-244], the IC50 lay in the range of 100 to 1000 nM.

In turn, `CCOc1cncc(-c2cnc(C(=O)NC(CN3CCOCC3)c3cc(NS(=O)(=O)C4CC4)ccn3)s2)n1` (centres unmarked) [I-245] had an IC50 below 100 nM.

The compound `CCOc1cncc(-c2ccc(C(=O)NCc3cnnc(NS(=O)(=O)C4CC4)c3)nc2)n1` [I-246, N-[(6-cyclopropanesulfonamidopyridazin-4-yl)methyl]-5-(6-ethoxypyrazin-2-yl)pyridine-2-carboxamide] yielded an IC50 below 100 nM.

Take `CCOc1cncc(-c2cnc(C(=O)N[C@@H](CN3CCOCC3)c3cccc(NS(=O)(=O)C(F)F)c3)s2)n1` [I-247, (R)—N-(1-(3-((difluoromethyl)sulfonamido)phenyl)-2-morpholinoethyl)-5-(6-ethoxypyrazin-2-yl)thiazole-2-carboxamide]: the IC50 is below 100 nM.

For the compound `CCOc1cncc(-c2cnc(C(=O)NCc3c(F)ccc(NS(=O)(=O)C4CC4)c3F)s2)n1` [I-248, N-[(3-cyclopropanesulfonamido-2,6-difluorophenyl)methyl]-5-(6-ethoxypyrazin-2-yl)-1,3-thiazole-2-carboxamide], the IC50 was below 100 nM.

`CCOc1cncc(-c2cnc(C(=O)NCc3cc(F)cc(NS(=O)(=O)C4CC4)c3F)s2)n1` [I-250, N-[(3-cyclopropanesulfonamido-2,5-difluorophenyl)methyl]-5-(6-ethoxypyrazin-2-yl)-1,3-thiazole-2-carboxamide] came in with an IC50 below 100 nM.

`O=C(NCc1cc(NS(=O)(=O)C2CC2)ccn1)c1ncc(-c2cncc(C(F)(F)F)c2)s1` [I-251, N-((4-(cyclopropanesulfonamido)pyridin-2-yl)methyl)-5-(5-(trifluoromethyl)pyridin-3-yl)thiazole-2-carboxamide] came in with an IC50 of 100 to 1000 nM.

`O=C(NCc1cc(NS(=O)(=O)C2CC2)ccn1)c1ncc(-c2cncc(Cl)c2)s1` [I-252]: the IC50 was below 100 nM.

Take `O=C(NCc1cc(NS(=O)(=O)C2CC2)ccn1)c1ncc(-c2cncc(C(F)(F)F)n2)s1` [I-253]: the IC50 is below 100 nM.

Consider `O=C(NCc1cc(NS(=O)(=O)C2CC2)ccn1)c1ccc(-c2cncc(C(F)(F)F)n2)cc1F` [I-254], for which the IC50 was 100 to 1000 nM.

As to `CCOc1cncc(-c2cnc(C(=O)NCc3cc(F)c(F)c(NS(=O)(=O)C4CC4)c3)s2)n1` [I-255, N-[(3-cyclopropanesulfonamido-4,5-difluorophenyl)methyl]-5-(6-ethoxypyrazin-2-yl)-1,3-thiazole-2-carboxamide], the IC50 was at least 1000 nM.

Regarding `CCOc1cncc(-c2ccc(C(=O)NCc3nccc(NS(=O)(=O)C4CC4)c3OC)c(F)c2)n1` [I-257, N-[(4-cyclopropanesulfonamido-3-methoxypyridin-2-yl)methyl]-4-(6-ethoxypyrazin-2-yl)-2-fluorobenzamide], the IC50 was below 100 nM.

Compound `CCOc1cncc(-c2ccc(NC(=O)[C@@](F)(CC)c3cc(NS(=O)(=O)C4CC4)ccn3)nc2)n1` [I-258, (R)-2-(4-(cyclopropanesulfonamido)pyridin-2-yl)-N-(5-(6-ethoxypyrazin-2-yl)pyridin-2-yl)-2-fluorobutanamide] had an IC50 below 100 nM.

`CCOc1cncc(-c2ccc(NC(=O)[C@](F)(CC)c3cc(NS(=O)(=O)C4CC4)ccn3)nc2)n1` [I-259, (S)-2-(4-(cyclopropanesulfonamido)pyridin-2-yl)-N-(5-(6-ethoxypyrazin-2-yl)pyridin-2-yl)-2-fluorobutanamide]: the IC50 is below 100 nM.

Compound `O=C(NC1(c2csc(NS(=O)(=O)C3CC3)n2)CC1)c1ccc(-c2cnc3n2CCCC3)cc1` [I-260, N-[1-(2-cyclopropanesulfonamido-1,3-thiazol-4-yl)cyclopropyl]-4-[5H, 6H, 7H, 8H-imidazo[1,2-a]pyridin-3-yl]benzamide] displayed an IC50 of at least 1000 nM.

`Cc1c(-c2ccc(C(=O)NC3(c4csc(NS(=O)(=O)C5CC5)n4)CC3)cc2)cnn1C` [I-261, N-[1-(2-cyclopropanesulfonamido-1,3-thiazol-4-yl)cyclopropyl]-4-(1,5-dimethylpyrazol-4-yl)benzamide] yielded an IC50 of at least 1000 nM.

`CCOc1cncc(-c2cnc(C(=O)NC(C)(C)c3cccc(NS(=O)(=O)C(F)F)c3)s2)n1` [I-262, N-{2-[3-(difluoromethanesulfonamido)phenyl]propan-2-yl}-5-(6-ethoxypyrazin-2-yl)-1,3-thiazole-2-carboxamide] yielded an IC50 below 100 nM.

Take `C[C@H]1Cc2nc(C(=O)NCc3cc(NS(=O)(=O)C4CC4)ccn3)cnc2N(C2CCC2)C1` [I-263, (S)-5-cyclobutyl-N-((4-(cyclopropanesulfonamido)pyridin-2-yl)methyl)-7-methyl-5,6,7,8-tetrahydropyrido[2,3-b]pyrazine-2-carboxamide]: the IC50 is at least 1000 nM.

`C[C@@H]1Cc2nc(C(=O)NCc3cc(NS(=O)(=O)C4CC4)ccn3)cnc2N(C2CCC2)C1` [I-264, (R)-5-cyclobutyl-N-((4-(cyclopropanesulfonamido)pyridin-2-yl)methyl)-7-methyl-5,6,7,8-tetrahydropyrido[2,3-b]pyrazine-2-carboxamide] registered an IC50 of at least 1000 nM.

`CCOc1cncc(-c2ccc(C(=O)NC3(c4cccc(NS(=O)(=O)C(F)F)c4)CC3)nc2)n1` [I-265, N-[1-[3-(difluoromethanesulfonamido)phenyl]cyclopropyl]-5-(6-ethoxypyrazin-2-yl)pyridine-2-carboxamide] yielded an IC50 below 100 nM.

The compound `CCOc1cncc(-c2ccc(C(=O)NC3(c4cccc(NS(=O)(=O)C(F)F)c4)CC3)cc2)n1` [I-266, N-(1-(3-((difluoromethyl)sulfonamido)phenyl)cyclopropyl)-4-(6-ethoxypyrazin-2-yl)benzamide] showed an IC50 below 100 nM.

Compound `CCOc1cncc(-c2ccc(C(=O)NC3(c4cccc(NS(=O)(=O)C(F)F)c4)CC3)c(F)c2)n1` [I-267, N-[1-[3-(difluoromethanesulfonamido)phenyl]cyclopropyl]-4-(6-ethoxypyrazin-2-yl)-2-fluorobenzamide] yielded an IC50 below 100 nM.

As to `CCOc1cncc(-c2ccc(C(=O)NC3(c4cccc(NS(=O)(=O)C(F)F)c4)CC3)s2)n1` [I-269, N-(1-(3-((difluoromethyl)sulfonamido)phenyl)cyclopropyl)-5-(6-ethoxypyrazin-2-yl)thiophene-2-carboxamide], the half-maximal inhibitory concentration (IC50) is below 100 nM.

`CCOc1cncc(-c2cnc(C(=O)N3CCC[C@@H]3c3ccnc(NS(=O)(=O)C4CC4)n3)s2)n1` [I-270, N-[4-[(2R)-1-[5-(6-ethoxypyrazin-2-yl)-1,3-thiazole-2-carbonyl]pyrrolidin-2-yl]pyrimidin-2-yl]cyclopropanesulfonamide] yielded an IC50 of 100 to 1000 nM.

For `CCOc1cncc(-c2cnc(C(=O)N3CCC[C@H]3c3ccnc(NS(=O)(=O)C4CC4)n3)s2)n1` [I-271, N-[4-[(2S)-1-[5-(6-ethoxypyrazin-2-yl)-1,3-thiazole-2-carbonyl]pyrrolidin-2-yl]pyrimidin-2-yl]cyclopropanesulfonamide], the IC50 is below 100 nM.

As for `CCOc1cncc(-c2cnc(C(=O)N[C@H](C)c3cccc(NS(=O)(=O)C(F)F)c3)s2)n1` [I-272, N-[(1R)-1-[3-(difluoromethanesulfonamido)phenyl]ethyl]-5-(6-ethoxypyrazin-2-yl)-1,3-thiazole-2-carboxamide], the IC50 is below 100 nM.

Turning to `CCOc1cncc(-c2cnc(C(=O)N[C@@H](C)c3cccc(NS(=O)(=O)C(F)F)c3)s2)n1` [I-273, N-[(1S)-1-[3-(difluoromethanesulfonamido)phenyl]ethyl]-5-(6-ethoxypyrazin-2-yl)-1,3-thiazole-2-carboxamide], the IC50 is below 100 nM.

In turn, `CCOc1cncc(-n2cc(C(=O)NC3(c4cccc(NS(=O)(=O)C(F)F)c4)CC3)cn2)n1` [I-274, N-[1-[3-(difluoromethanesulfonamido)phenyl]cyclopropyl]-1-(6-ethoxypyrazin-2-yl)pyrazole-4-carboxamide] displayed an IC50 below 100 nM.

In the case of `CCOc1cncc(-n2cnc(C(=O)N3CCC[C@@H]3c3ccnc(NS(=O)(=O)C4CC4)n3)c2)n1` [I-275, N-[4-[(2R)-1-[1-(6-ethoxypyrazin-2-yl)imidazole-4-carbonyl]pyrrolidin-2-yl]pyrimidin-2-yl]cyclopropanesulfonamide], the IC50 was at least 1000 nM.

`CCOc1cncc(-n2cnc(C(=O)N3CCC[C@H]3c3ccnc(NS(=O)(=O)C4CC4)n3)c2)n1` [I-276, N-[4-[(2S)-1-[1-(6-ethoxypyrazin-2-yl)imidazole-4-carbonyl]pyrrolidin-2-yl]pyrimidin-2-yl]cyclopropanesulfonamide] registered an IC50 below 100 nM.
